According to patent publication US20250387419A1, “PARP INHIBITOR-RESISTANT PATIENT TREATED WITH TH-302” (ASCENTAWITS PHARMACEUTICALS, LTD., priority 2021, published 2025):
“And” between values parts separate entries of the source, which are not always exact repeats. Equal entries are not always repeated.

Tested on: human pancreatic cancer Capan-1 subcutaneous xenograft model
Test: In-depth efficacy in olaparib-resistant pancreatic cancer Capan-1 CDX model (3.2)
Format: in vivo, mouse
Details: for CR Rate: complete response, animals/group
Method: Protocol: Nude BALB/c mice were subcutaneously inoculated with human pancreatic cancer Capan-1 cells, establishing a human pancreatic cancer subcutaneous xenograft model. The mice were divided into 7 groups, 6 in each group: 100 mg/kg of the test drug olaparib as a monotherapy (Group 2); 50 mg/kg of TH-302 as a monotherapy (Group 3, QD); 100 mg/kg of TH-302 as a monotherapy (Group 4); 50 mg/kg of TH-302 as a monotherapy (Group 5, QW); 25 mg/kg of TH-302 as a monotherapy (Group 6); 25 mg/kg TH-302 in combination therapy with 100 mg/kg olaparib (Group 7); and 10% anhydrous ethanol+10% polyoxyethylene (35) castor oil+80% glucose injection solution D5W (pH 7.4) as a vehicle control (Group 1). The vehicle control group and the TH-302 test groups were all administered through tail vein injection. The 50 mg/kg TH-302 monotherapy group (Group 3, QD) was administered once daily for 3 consecutive days. After rest for 4 days and two weeks, the mice were again administered daily for another 3 consecutive days. TH-302 in all the 100 mg/kg (Group 4, QW), 50 mg/kg (Group 5, QW) and 25 mg/kg (Group 6, QW) TH-302 monotherapy groups and 25 mg/kg TH-302+100 mg/kg olaparib combination therapy group (Group 7) was administered once weekly for a total of three weeks. The test drug olaparib in all the groups was orally and intragastrically administered once daily for totally 30 days. Routes of administration, doses and regimens for the human pancreatic cancer Capan-1 animal model are specifically summarized in Table 12.
Tumor growth of the treatment and control groups on different days in the experiment were recorded and shown in Table 13, and corresponding tumor volume growth curves of the mice in respective groups are shown in FIG. 7. Efficacy evaluation was conducted based on relative tumor proliferation rates and relative tumor growth inhibition rates, and the results of efficacy analysis are summarized in Table 14. Body weight changes of the treatment and control groups after administration were recorded to investigate safety of the groups in the human pancreatic cancer Capan-1 subcutaneous model. Body weight change rates of the mice on Day 43 are shown in Table 15, and curves showing body weights of the treatment groups over time are plotted in FIG. 8.
A relative tumor proliferation rate, denoted as T/C %, is calculated as a relative tumor volume or a tumor weight of a treatment group as a percentage of that of the control group at a certain point of time according to:
T/C %=TRTV/CRTV×100% (where TRTV denotes average RTV of the treatment group; CRTV represents average RTV of the vehicle control group; and RTV=Vt/V0, where V0 is a tumor volume of an animal at the time of randomization, and Vt is a tumor volume of the animal after treatment); or
T/C %=TTW/CTW×100% (where TTW is an average tumor weight of the treatment group at the end of the experiment, and CTW is an average tumor weight of the vehicle control group at the end of the experiment).
A relative tumor growth inhibition rate, denoted as TGI (%), is calculated according to: TGI %=(1−T/C)×100% (where T and C are relative tumor volumes (RTV) or tumor weights (TW) of a treatment group and the control group, respectively, at a particular point of time).

[1] = Group 3: 50 mg/kg i.v. QD, Day 43
[2] = Group 4: 100 mg/kg i.v. QW×3, Day 43
[3] = Group 5: 50 mg/kg i.v. QW×3, Day 43
[4] = Group 6: 25 mg/kg i.v. QW×3, Day 43
[5] = Group 2: 100 mg/kg p.o. QD×30, Day 43

Question: How did the Tumor volume (Group 3: 50 mg/kg i.v. QD, Day 9) turn out when Cn1c(COP(=O)(NCCBr)NCCBr)cnc1[N+](=O)[O-] [TH-302, evofosfamide] was run?
Answer: 194.10 mm^3

Question: And the Tumor volume (Group 3: 50 mg/kg i.v. QD, Day 13)?
Answer: 138.02 mm^3

Question: And the Tumor volume (Group 3: 50 mg/kg i.v. QD, Day 16)?
Answer: 124.61 mm^3

Question: What about the Tumor volume (Group 3: 50 mg/kg i.v. QD, Day 20) of the same molecule?
Answer: 105.24 mm^3

Question: What about the Tumor volume (Group 3: 50 mg/kg i.v. QD, Day 23) of the same molecule?
Answer: 107.93 mm^3

Question: What about the Tumor volume (Group 3: 50 mg/kg i.v. QD, Day 27) of the same molecule?
Answer: 110.53 mm^3

Question: And the Tumor volume (Group 3: 50 mg/kg i.v. QD, Day 30)?
Answer: 123.45 mm^3

Question: And the Tumor volume (Group 3: 50 mg/kg i.v. QD, Day 34)?
Answer: 101.47 mm^3

Question: What about the Tumor volume (Group 3: 50 mg/kg i.v. QD, Day 37) of the same molecule?
Answer: 114.69 mm^3

Question: What about the Tumor volume (Group 3: 50 mg/kg i.v. QD, Day 41) of the same molecule?
Answer: 134.32 mm^3

Question: And the “Relative Tumor Volume (x ± S)” value [1]?
Answer: 0.99 ± 0.22

Question: What about the “T/C (%)” value [1] of the same molecule?
Answer: 10.83%

Question: What about the “TGI (%)” value [1] of the same molecule?
Answer: 89.17%

Question: And the Tumor volume (Group 3: 50 mg/kg i.v. QD, Day 43, 50 mg/kg)?
Answer: 146.99 mm^3 and 146.99 ± 37.96 mm^3

Question: What about the “CR Rate” value [1] of the same molecule?
Answer: 0/6

Question: And the Tumor volume (Group 3: 50 mg/kg i.v. QD×3, 4 days off, 2 weeks off, QD×3, Day 6)?
Answer: 146.76 mm^3

Question: And the Tumor volume (Group 4: 100 mg/kg i.v. QW×3, Day 6)?
Answer: 146.05 mm^3

Question: What about the Tumor volume (Group 4: 100 mg/kg i.v. QW×3, Day 9) of the same molecule?
Answer: 193.80 mm^3

Question: And the Tumor volume (Group 4: 100 mg/kg i.v. QW×3, Day 13)?
Answer: 123.87 mm^3

Question: What about the Tumor volume (Group 4: 100 mg/kg i.v. QW×3, Day 16) of the same molecule?
Answer: 112.22 mm^3

Question: What about the Tumor volume (Group 4: 100 mg/kg i.v. QW×3, Day 20) of the same molecule?
Answer: 85.08 mm^3

Question: And the Tumor volume (Group 4: 100 mg/kg i.v. QW×3, Day 23)?
Answer: 59.95 mm^3

Question: What about the Tumor volume (Group 4: 100 mg/kg i.v. QW×3, Day 27) of the same molecule?
Answer: 49.03 mm^3

Question: What about the Tumor volume (Group 4: 100 mg/kg i.v. QW×3, Day 30) of the same molecule?
Answer: 48.35 mm^3

Question: What about the Tumor volume (Group 4: 100 mg/kg i.v. QW×3, Day 34) of the same molecule?
Answer: 65.87 mm^3

Question: What about the Tumor volume (Group 4: 100 mg/kg i.v. QW×3, Day 37) of the same molecule?
Answer: 75.54 mm^3

Question: And the Tumor volume (Group 4: 100 mg/kg i.v. QW×3, Day 41)?
Answer: 106.10 mm^3

Question: And the “Relative Tumor Volume (x ± S)” value [2]?
Answer: 0.83 ± 0.17

Question: And the “T/C (%)” value [2]?
Answer: 9.11%

Question: What about the “TGI (%)” value [2] of the same molecule?
Answer: 90.89%

Question: What about the Tumor volume (Group 4: 100 mg/kg i.v. QW×3, Day 43, 100 mg/kg) of the same molecule?
Answer: 124.68 mm^3 and 124.68 ± 31.35 mm^3

Question: And the “CR Rate” value [2]?
Answer: 0/6

Question: What about the Tumor volume (Group 5: 50 mg/kg i.v. QW×3, Day 6) of the same molecule?
Answer: 147.11 mm^3

Question: What about the Tumor volume (Group 5: 50 mg/kg i.v. QW×3, Day 9) of the same molecule?
Answer: 182.60 mm^3

Question: What about the Tumor volume (Group 5: 50 mg/kg i.v. QW×3, Day 13) of the same molecule?
Answer: 178.72 mm^3

Question: What about the Tumor volume (Group 5: 50 mg/kg i.v. QW×3, Day 16) of the same molecule?
Answer: 181.66 mm^3

Question: And the Tumor volume (Group 5: 50 mg/kg i.v. QW×3, Day 20)?
Answer: 181.56 mm^3

Question: And the Tumor volume (Group 5: 50 mg/kg i.v. QW×3, Day 23)?
Answer: 156.49 mm^3

Question: And the Tumor volume (Group 5: 50 mg/kg i.v. QW×3, Day 27)?
Answer: 152.57 mm^3

Question: What about the Tumor volume (Group 5: 50 mg/kg i.v. QW×3, Day 30) of the same molecule?
Answer: 152.13 mm^3

Question: What about the Tumor volume (Group 5: 50 mg/kg i.v. QW×3, Day 34) of the same molecule?
Answer: 176.07 mm^3

Question: What about the Tumor volume (Group 5: 50 mg/kg i.v. QW×3, Day 37) of the same molecule?
Answer: 198.42 mm^3

Question: And the Tumor volume (Group 5: 50 mg/kg i.v. QW×3, Day 41)?
Answer: 221.92 mm^3

Question: What about the “Complete tumor inhibition rate” value [3] of the same molecule?
Answer: 33.3%

Question: And the “Relative Tumor Volume (x ± S)” value [3]?
Answer: 1.81 ± 0.64

Question: And the “T/C (%)” value [3]?
Answer: 19.82%

Question: What about the “TGI (%)” value [3] of the same molecule?
Answer: 80.18%

Question: And the Tumor volume (Group 5: 50 mg/kg i.v. QW×3, Day 43, 50 mg/kg)?
Answer: 263.45 mm^3 and 263.45 ± 86.54 mm^3

Question: What about the “CR Rate” value [3] of the same molecule?
Answer: 2/6

Question: And the Tumor volume (Group 6: 25 mg/kg i.v. QW×3, Day 6)?
Answer: 146.81 mm^3

Question: And the Tumor volume (Group 6: 25 mg/kg i.v. QW×3, Day 9)?
Answer: 213.60 mm^3

Question: What about the Tumor volume (Group 6: 25 mg/kg i.v. QW×3, Day 13) of the same molecule?
Answer: 233.94 mm^3

Question: What about the Tumor volume (Group 6: 25 mg/kg i.v. QW×3, Day 16) of the same molecule?
Answer: 277.57 mm^3

Question: And the Tumor volume (Group 6: 25 mg/kg i.v. QW×3, Day 20)?
Answer: 295.46 mm^3

Question: And the Tumor volume (Group 6: 25 mg/kg i.v. QW×3, Day 23)?
Answer: 328.33 mm^3

Question: And the Tumor volume (Group 6: 25 mg/kg i.v. QW×3, Day 27)?
Answer: 373.13 mm^3

Question: And the Tumor volume (Group 6: 25 mg/kg i.v. QW×3, Day 30)?
Answer: 454.44 mm^3

Question: What about the Tumor volume (Group 6: 25 mg/kg i.v. QW×3, Day 34) of the same molecule?
Answer: 705.45 mm^3

Question: And the Tumor volume (Group 6: 25 mg/kg i.v. QW×3, Day 37)?
Answer: 886.42 mm^3

Question: What about the Tumor volume (Group 6: 25 mg/kg i.v. QW×3, Day 41) of the same molecule?
Answer: 1344.26 mm^3

Question: And the “Relative Tumor Volume (x ± S)” value [4]?
Answer: 11.12 ± 3.31

Question: And the “T/C (%)” value [4]?
Answer: 121.59%

Question: What about the “TGI (%)” value [4] of the same molecule?
Answer: −21.59%

Question: And the Tumor volume (Group 6: 25 mg/kg i.v. QW×3, Day 43, 25 mg/kg)?
Answer: 1521.33 mm^3 and 1521.33 ± 349.46 mm^3

Question: What about the “CR Rate” value [4] of the same molecule?
Answer: 0/6

Question: Which Tumor volume (Group 2: 100 mg/kg p.o. QD×30, Day 6) does the source give for O=C(c1cc(Cc2n[nH]c(=O)c3ccccc23)ccc1F)N1CCN(C(=O)C2CC2)CC1 [olaparib] here?
Answer: 146.72 mm^3

Question: And the Tumor volume (Group 2: 100 mg/kg p.o. QD×30, Day 9)?
Answer: 223.17 mm^3

Question: And the Tumor volume (Group 2: 100 mg/kg p.o. QD×30, Day 13)?
Answer: 263.96 mm^3

Question: What about the Tumor volume (Group 2: 100 mg/kg p.o. QD×30, Day 16) of the same molecule?
Answer: 314.03 mm^3

Question: What about the Tumor volume (Group 2: 100 mg/kg p.o. QD×30, Day 20) of the same molecule?
Answer: 373.87 mm^3

Question: What about the Tumor volume (Group 2: 100 mg/kg p.o. QD×30, Day 23) of the same molecule?
Answer: 419.26 mm^3

Question: What about the Tumor volume (Group 2: 100 mg/kg p.o. QD×30, Day 27) of the same molecule?
Answer: 518.48 mm^3

Question: What about the Tumor volume (Group 2: 100 mg/kg p.o. QD×30, Day 30) of the same molecule?
Answer: 550.33 mm^3

Question: And the Tumor volume (Group 2: 100 mg/kg p.o. QD×30, Day 34)?
Answer: 604.32 mm^3

Question: And the Tumor volume (Group 2: 100 mg/kg p.o. QD×30, Day 37)?
Answer: 725.18 mm^3

Question: What about the Tumor volume (Group 2: 100 mg/kg p.o. QD×30, Day 41) of the same molecule?
Answer: 767.49 mm^3

Question: What about the “Relative Tumor Volume (x ± S)” value [5] of the same molecule?
Answer: 5.72 ± 0.54

Question: What about the “T/C (%)” value [5] of the same molecule?
Answer: 62.57%

Question: And the “TGI (%)” value [5]?
Answer: 37.43%

Question: And the Tumor volume (Group 2: 100 mg/kg p.o. QD×30, Day 43, 100 mg/kg)?
Answer: 846.86 mm^3 and 846.86 ± 128.85 mm^3

Question: And the “CR Rate” value [5]?
Answer: 0/6
